Source: the supplement of paper PMC10307832

Tests used:
[1] = compound: O=S(=O)(c1ccccc1)N(CC(F)(F)F)c1ccc(C(O)(C(F)(F)F)C(F)(F)F)cc1 + O=C(CCCCCCC(=O)Nc1ccccc1)NO [Vorinostat] (partner 1 µM); assay: relative viability (nuclei count vs DMSO), 5 days (fraction); higher = more cells survive
Summary of the method: (§1)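 Medians of duplicate plates are given as relative viability. That measure is the nuclei count in treated wells divided by the count in vehicle wells. Counts were taken on 4× images of lung cancer cell lines in 1536-well plates, 5 days after pin-tool dosing the day after seeding with one drug alone or a fixed anchor-drug dose plus five library-drug doses (not always all listed) in √10 steps.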

[2] = compound: O=S(=O)(c1ccccc1)N(CC(F)(F)F)c1ccc(C(O)(C(F)(F)F)C(F)(F)F)cc1 + CC1(C)CCC(c2ccc(Cl)cc2)=C(CN2CCN(c3ccc(C(=O)NS(=O)(=O)c4ccc(N[C@H](CCN5CCOCC5)CSc5ccccc5)c(S(=O)(=O)C(F)(F)F)c4)cc3)CC2)C1 [Navitoclax] (partner 0.5 µM); assay: as above
Summary of the method: as §1

Cell Line | relative viability ([1]; first compound 0.8 µM) | relative viability ([1]; first compound 2.53 µM) | relative viability ([1]; first compound 8 µM) | relative viability ([2]; first compound 0.8 µM) | relative viability ([2]; first compound 2.53 µM) | relative viability ([2]; first compound 8 µM)
201T | 0.953 | 0.918 | 0.865 | 1.18 | 1.18 | 1.22
A549 |  |  |  | 1.34 | 1.12 | 0.97
A-427 | 0.85 | 0.803 | 0.812 | 1.01 | 0.886 | 1.01
ABC-1 |  | 0.882 | 0.912 |  |  | 
BEN | 0.581 | 0.543 | 0.566 | 0.0593 | 0.0841 | 0.0468
CAL-12T | 0.672 | 0.578 | 0.548 | 1.18 | 1.35 | 0.832
COR-L23 | 0.522 | 0.543 | 0.423 | 1.14 | 1.03 | 0.913
COR-L 105 | 0.615 | 0.706 | 0.66 | 0.691 | 0.668 | 0.823
Calu-6 |  |  |  | 0.796 | 0.823 | 0.647
ChaGo-K-1 | 0.885 | 0.732 | 0.655 | 0.978 | 1.02 | 1.59
EBC-1 |  |  |  | 0.447 | 0.402 | 0.356
EKVX | 0.697 | 0.513 | 0.535 | 0.939 | 0.918 | 0.868
EMC-BAC-2 | 0.336 | 0.296 | 0.467 | 1.25 | 1.21 | 1.13
EPLC-272H | 0.319 | 0.476 | 0.396 | 1.24 | 1.08 | 0.795
H3255 | 0.716 | 0.752 | 0.667 | 0.537 | 0.64 | 0.503
HARA | 0.507 | 0.509 | 0.388 | 1.21 | 1.14 | 0.948
HCC-15 | 0.748 | 0.682 | 0.63 | 0.639 | 0.593 | 0.619
HCC-44 | 0.981 | 0.972 | 0.953 | 1.09 | 1.01 | 0.933
HCC-78 | 0.489 | 0.414 | 0.425 | 0.792 | 0.67 | 0.622
HCC-366 | 0.506 | 0.325 | 0.279 | 1.19 | 1.03 | 1.03
HCC-827 | 0.874 | 0.842 | 0.781 | 1.02 | 0.999 | 0.949
HOP-62 | 0.716 | 0.508 | 0.522 | 1.19 | 0.999 | 1.09
IA-LM | 0.917 | 0.757 | 0.553 | 0.765 | 0.696 | 0.899
LC-2-ad | 0.734 | 0.657 | 0.602 | 0.531 | 0.544 | 0.518
LCLC-97TM1 |  | 0.562 | 0.567 | 0.535 | 0.368 | 0.344
LCLC-103H | 0.859 | 0.746 | 0.78 |  |  | 

Cell Line | relative viability ([1]; first compound 0.8 µM) | relative viability ([1]; first compound 2.53 µM) | relative viability ([1]; first compound 8 µM) | relative viability ([2]; first compound 0.8 µM) | relative viability ([2]; first compound 2.53 µM) | relative viability ([2]; first compound 8 µM)
LK-2 | 0.27 | 0.247 | 0.346 | 0.912 | 0.778 | 0.941
LOU-NH91 | 0.985 | 0.913 | 1.04 | 0.73 | 0.666 | 0.717
LU99A | 0.568 | 0.462 | 0.401 | 1.02 | 0.694 | 0.776
LXF-289 | 0.719 | 0.656 | 0.74 | 0.879 | 0.826 | 0.852
NCI-H23 | 0.75 | 0.622 | 0.725 | 1.11 | 0.804 | 0.817
NCI-H322M | 0.883 | 0.842 | 0.869 | 1.29 | 1.12 | 1.2
NCI-H358 |  | 0.581 | 0.541 |  |  | 
NCI-H441 | 0.464 | 0.85 | 0.781 | 0.411 | 0.604 | 0.613
NCI-H460 | 0.847 | 0.673 | 0.618 | 1.42 | 1.01 | 0.967
NCI-H520 | 0.847 | 0.678 | 0.77 | 0.943 | 1.3 | 1.38
NCI-H522 | 0.833 | 0.973 | 0.959 |  |  | 
NCI-H596 | 0.583 | 0.559 | 0.6 | 1.02 | 0.904 | 0.826
NCI-H647 | 0.304 | 0.404 | 0.655 | 1.3 | 1.26 | 1.01
NCI-H650 | 0.368 | 0.36 | 0.359 |  |  | 
NCI-H661 | 0.828 | 0.783 | 0.821 |  |  | 
NCI-H727 | 1.18 | 0.853 | 1.03 | 0.387 | 0.407 | 0.507
NCI-H838 | 0.812 | 0.737 | 0.699 | 1.3 | 1.25 | 1.09
NCI-H1299 |  |  |  | 1.06 | 1 | 0.983
NCI-H1355 | 0.698 | 0.624 | 0.606 | 1.09 | 0.754 | 0.826
NCI-H1395 | 0.532 | 0.594 | 0.759 | 1.01 | 1.06 | 1.31
NCI-H1437 | 0.787 | 0.572 | 0.665 | 1.04 | 0.859 | 0.893
NCI-H1648 | 0.41 | 0.387 | 0.312 |  |  | 
NCI-H1650 | 0.511 | 0.496 | 0.58 | 1.39 | 1.07 | 1.06
NCI-H1651 | 0.626 | 0.547 | 0.525 | 1.15 | 0.939 | 1.02
NCI-H1666 | 0.712 | 0.823 | 0.809 | 0.756 | 0.882 | 0.99
NCI-H1703 |  |  |  | 0.926 | 0.634 | 0.7

Cell Line | relative viability ([1]; first compound 0.8 µM) | relative viability ([1]; first compound 2.53 µM) | relative viability ([1]; first compound 8 µM) | relative viability ([2]; first compound 0.8 µM) | relative viability ([2]; first compound 2.53 µM) | relative viability ([2]; first compound 8 µM)
NCI-H1734 | 1.01 | 0.898 | 0.498 | 1.14 | 0.809 | 0.801
NCI-H1755 | 0.907 | 0.679 | 0.592 | 1.01 | 0.909 | 0.924
NCI-H1792 |  |  |  | 0.798 | 0.559 | 0.474
NCI-H1793 | 0.574 | 0.539 | 0.521 | 0.471 | 0.261 | 0.301
NCI-H1915 | 0.51 | 0.568 | 0.499 | 0.881 | 0.81 | 0.786
NCI-H1944 | 0.686 | 0.561 | 0.521 | 1.03 | 1 | 1.04
NCI-H1975 | 0.752 | 0.752 | 0.65 | 1.29 | 1.11 | 1.12
NCI-H1993 | 0.859 | 0.575 | 0.836 | 0.867 | 0.691 | 0.788
NCI-H2009 | 0.707 | 0.614 | 0.648 | 0.965 | 1 | 0.938
NCI-H2023 | 0.567 | 0.422 | 0.512 | 1.07 | 0.888 | 0.845
NCI-H2085 | 0.785 | 0.748 | 0.711 | 1.14 | 1 | 1.03
NCI-H2087 | 0.89 | 0.509 | 0.946 | 1.03 | 0.942 | 0.916
NCI-H2126 | 0.89 | 0.684 | 0.723 | 0.892 | 0.824 | 0.877
NCI-H2170 | 0.863 | 0.695 | 0.761 | 0.715 | 0.681 | 0.547
NCI-H2228 | 0.62 | 0.427 | 0.644 | 0.839 | 0.89 | 0.713
NCI-H2342 | 0.8 | 0.841 | 0.741 |  |  | 
NCI-H2347 | 0.695 | 0.52 | 0.548 | 0.955 | 0.921 | 0.582
NCI-H2405 | 1.02 | 0.755 | 0.913 | 1.11 | 1.01 | 0.896
NCI-H3122 | 1.01 | 0.948 | 1.19 | 1.04 | 0.964 | 1.06
PC-3 [JPC-3] |  | 0.637 | 0.895 | 0.8 | 0.724 | 0.7
PC-14 | 0.63 | 0.857 | 0.656 | 1.14 | 1.11 | 0.412
RERF-LC-KJ | 0.735 | 0.588 | 0.616 | 0.863 | 0.802 | 0.87
SK-LU-1 | 0.797 | 0.705 | 0.727 | 1.18 | 0.865 | 0.56
SK-MES-1 | 1.09 | 1.18 | 0.915 | 1.42 | 1.33 | 1.21
SW 900 | 0.498 | 0.498 | 0.699 |  |  | 
SW 1573 | 0.634 | 0.722 | 0.725 | 1.26 | 0.874 | 0.641
